Results as given in patent publication US20150366839A1, “Schisantherin A for the treatment of neurodegenerative diseases” (priority 2014, published 2015).

Assays:
iNOS = iNOS expression, Western blot; type: cell-based, Human
Experimental: (§1) After treatment, SH-SY5Y cells were washed three times with PBS and then lysis with RIPA lysis buffer containing 1% PMSF and 1% Protease Inhibitor Cocktail and incubated for 30 min on ice. Cell lysates were centrifuged at 12,500 g for 20 min at 4° C. The supernatant was separated and the amount of protein was determined using the BCA protein assay kit (Thermo Scientific Pierce, USA). Protein samples (30 μg) were separated by SDS-PAGE (10% (w/v)) polyacrylamide gel and then transferred to a polyvinylidene difluoride (PVDF) membrane (Bio-Rad, Hercules, Calif.). Subsequently, the membrane was blocked with 5% (v/v) non-fat milk in PBST (PBS containing 0.1% Tween 20) for 1 h at room temperature. The blots were incubated overnight at 4° C. with primary antibodies. […] Quantitative assessment of protein bands was done with Gel Doc™ XRS equipped with Quantity One software.
Augmented NO production subsequent to iNOS induction appears to play an important role in the initial phase of 6-OHDA-induced neuro-damage models in vitro and in vivo (Singh, Das et al. 2005; Lin, Uang et al. 2007; Shih, Chen et al. 2011). […] Expression of the total iNOS proteins were determined by Western blot analysis. […] Results of FIGS. 4A-C are expressed as a percentage of relative fluorescent intensity (RFI) of the Control group. ###P<0.005 versus control group; *p<0.05, **p<0.01 and *** p<0.005 versus 6-OHDA group. […]

Bax and Bcl-2 = Bax and Bcl-2 expression in MPP+-treated cells, Western blot; type: cell-based, Human
Experimental: (§2) After treatment, SH-SY5Y cells were washed three times with PBS and then lysis with RIPA lysis buffer containing 1% PMSF and 1% Protease Inhibitor Cocktail and incubated for 30 min on ice. Cell lysates were centrifuged at 12,500 g for 20 min at 4° C. The supernatant was separated and the amount of protein was determined using the BCA protein assay kit (Thermo Scientific Pierce, USA). Protein samples (30 μg) were separated by SDS-PAGE (10% (w/v)) polyacrylamide gel and then transferred to a polyvinylidene difluoride (PVDF) membrane (Bio-Rad, Hercules, Calif.). Subsequently, the membrane was blocked with 5% (v/v) non-fat milk in PBST (PBS containing 0.1% Tween 20) for 1 h at room temperature. The blots were incubated overnight at 4° C. with primary antibodies. After three washes with PBST, the membranes were incubated with horseradish peroxidase-conjugated secondary antibodies (1:2000) in PBST with 5% non-fat milk for 1 h at room temperature. After repeated washes, proteins were visualized with an ECL advanced western blotting detection kit. Photographs of protein bands were taken by a Molecular Imager ChemiDoc XRS (Bio-Rad, Hercules, Calif.). Quantitative assessment of protein bands was done with Gel Doc™ XRS equipped with Quantity One software.
To investigate whether SchiA has any effect on the expression of Bax and Bcl-2 proteins in MPP^+-induced SH-SY5Y cells, the expression levels of Bax and Bcl-2 were determined by Western blot analysis. SH-SY5Y cells were pretreated with 60 μM SchiA for 12 h before incubating with 2 mM MPP for 36 h. The expression of Bax or Bcl-2 in cell lysates was determined by Western blot analysis. […] In this study, β-actin was shown as an internal control. In FIGS. 15A-B, the Bax/Bcl-2 ratio are expressed as a percentage of that of the control group. ###P<0.005 versus control group; ***P<0.005 versus MPP group.

Akt = assay: p-Akt level after MPP+, Western blot; type: cell-based, Human
Experimental: as §1
The inventors also investigated the contribution of the PI3K/Akt pathway in the neuroprotective effects of SchiA. The inventors measured phosphorylation-Akt (p-Akt) levels after pre-treated with 60 μM SchiA for 12 h and then exposed to 2 mM MPP for another 36 h. […] To further validate whether the activation of PI3K/Akt signaling pathway, the inventors determined the blocking effect of PI3K/Akt inhibitor such as AKT inhibitor IV on the in vitro neuroprotective effect of SchiA. […]

CREB = assay: p-CREB, CREB and Bcl-2 time course with SchiA alone, Western blot; type: cell-based, Human; settings: 60 μM alone
Experimental: as §2, with “Photographs of protein bands were taken by a Molecular Imager ChemiDoc XRS (Bio-Rad, Hercules, Calif.).” left out
To investigate the effect of SchiA on the activation of the upstream targets of CREB in MPP^+-treated SH-SY5Y cells, the protein levels of p-CREB/CREB and were determined. […]

P-gp = P-gp (Homo sapiens, UniProt P08183); settings: Pan, Lu et al. 2006; cited from earlier work
Chain of P-gp (P08183 whole entry): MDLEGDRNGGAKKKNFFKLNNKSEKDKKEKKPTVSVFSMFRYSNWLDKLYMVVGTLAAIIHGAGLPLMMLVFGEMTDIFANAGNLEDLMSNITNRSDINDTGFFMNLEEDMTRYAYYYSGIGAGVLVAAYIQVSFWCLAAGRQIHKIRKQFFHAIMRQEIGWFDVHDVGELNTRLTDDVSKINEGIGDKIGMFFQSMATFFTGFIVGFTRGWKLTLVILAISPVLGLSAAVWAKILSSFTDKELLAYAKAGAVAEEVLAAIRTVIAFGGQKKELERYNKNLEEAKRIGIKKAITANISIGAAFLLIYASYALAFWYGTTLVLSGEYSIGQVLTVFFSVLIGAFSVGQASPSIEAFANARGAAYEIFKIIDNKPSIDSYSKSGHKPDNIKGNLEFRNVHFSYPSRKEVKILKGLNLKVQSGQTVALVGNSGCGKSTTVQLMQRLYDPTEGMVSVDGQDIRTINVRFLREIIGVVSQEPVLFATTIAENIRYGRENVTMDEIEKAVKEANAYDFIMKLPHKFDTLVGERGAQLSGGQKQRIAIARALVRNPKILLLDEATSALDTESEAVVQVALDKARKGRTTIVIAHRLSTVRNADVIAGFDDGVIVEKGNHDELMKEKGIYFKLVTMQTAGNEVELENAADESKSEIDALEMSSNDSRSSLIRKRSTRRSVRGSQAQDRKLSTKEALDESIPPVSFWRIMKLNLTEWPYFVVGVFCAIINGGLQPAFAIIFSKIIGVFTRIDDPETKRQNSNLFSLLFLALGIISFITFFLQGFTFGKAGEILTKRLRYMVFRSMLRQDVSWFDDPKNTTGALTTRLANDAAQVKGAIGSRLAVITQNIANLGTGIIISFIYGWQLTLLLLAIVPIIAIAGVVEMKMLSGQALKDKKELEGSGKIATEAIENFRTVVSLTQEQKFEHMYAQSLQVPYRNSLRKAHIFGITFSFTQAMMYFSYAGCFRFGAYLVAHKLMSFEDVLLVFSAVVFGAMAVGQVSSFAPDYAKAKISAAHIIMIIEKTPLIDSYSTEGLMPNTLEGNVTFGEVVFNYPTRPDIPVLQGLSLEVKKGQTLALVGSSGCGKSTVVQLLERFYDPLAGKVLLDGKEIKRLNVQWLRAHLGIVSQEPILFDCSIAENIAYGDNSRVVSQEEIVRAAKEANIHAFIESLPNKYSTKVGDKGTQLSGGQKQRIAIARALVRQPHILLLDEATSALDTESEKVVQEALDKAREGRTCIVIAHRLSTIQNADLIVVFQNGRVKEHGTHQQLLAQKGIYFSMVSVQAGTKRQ

[1] = 60 μM 12 h, then 2 mM MPP+ 36 h

## COc1cc2c(c(OC)c1OC)-c1c(cc3c(c1OC)OCO3)C[C@H](C)[C@](C)(O)[C@H]2OC(=O)c1ccccc1 [SchiA, Schisantherin A]
iNOS; 60 μM 12 h, then 400 μM 6-OHDA 2 h
  6-OHDA-induced iNOS expression: reduced the expression of iNOS induced by 6-OHDA significantly
iNOS; 60 μM, without 6-OHDA
  iNOS expression, compound alone: no obvious influence
Bax and Bcl-2; [1]
  MPP+-induced down-regulation of Bcl-2 expression: could inhibit the down-regulation of Bcl-2 expression
  MPP+-induced increase of the Bax/Bcl-2 ratio: effectively prevented
Bax and Bcl-2; 60 μM, compared with control group
  Bax protein expression: did not changed significantly
Bax and Bcl-2; 60 μM, without MPP+
  Bcl-2 expression, compound alone: increase the expression of Bcl-2
Akt; [1]
  MPP+-induced down-regulation of Akt expressions: inhibited
Akt; 60 μM, without MPP+
  p-Akt level compared to control group, compound alone: 2.5 fold
CREB; after 3 h
  phosphorylation of CREB compared with 0 h: about 1.5 fold
CREB; from 3 h to 12 h
  Bcl-2 expression: induced
P-gp
  P-gp inhibition: potent P-gp inhibitor
